{"source": "patent US8541460B2", "about": "“PDK-1/Akt signaling inhibitors” (The Ohio State University, priority 2003, dated 2013)", "key": {"immunoprecipitated Akt": {"test_system": "immunoprecipitated Akt", "experiment": "Direct inhibition of immunoprecipitated Akt kinase activity", "type": "biochemical, human"}, "RPMI-8226": {"test_system": "RPMI-8226", "experiment": "NCI DTP cell line screen (SRB), Leukemia", "type": "cell-based, human", "procedure": "(§1) Screening of compounds 70 and 71 against several cancer cell lines The human tumor cell lines of the cancer screening panel are grown in RPMI 1640 medium containing 5% fetal bovine serum and 2 mM L-glutamine. For a typical screening experiment, cells are inoculated into 96 well microtiter plates in 100 μL at plating densities ranging from 5,000 to 40,000 cells/well depending on the doubling time of individual cell lines. After cell inoculation, the microtiter plates are incubated at 37° C., 5% CO2, 95% air and 100% relative humidity for 24 h prior to addition of experimental drugs.\n(§2) After 24 h, two plates of each cell line are fixed in situ with TCA, to represent a measurement of the cell population for each cell line at the time of drug addition (Tz). Experimental drugs are solubilized in dimethyl sulfoxide at 400-fold the desired final maximum test concentration and stored frozen prior to use. At the time of drug addition, an aliquot of frozen concentrate is thawed and diluted to twice the desired final maximum test concentration with complete medium containing 50 μg/ml gentamicin. Additional four, 10-fold or ½ log serial dilutions are made to provide a total of five drug concentrations plus control. Aliquots of 100 μl of these different drug dilutions are added to the appropriate microtiter wells already containing 100 μl of medium, resulting in the required final drug concentrations.\n(§3) Following drug addition, the plates are incubated for an additional 48 h at 37° C., 5% CO2, 95% air, and 100% relative humidity. For adherent cells, the assay is terminated by the addition of cold TCA. Cells are fixed in situ by the gentle addition of 50 μl of cold 50% (w/v) TCA (final concentration, 10% TCA) and incubated for 60 minutes at 4° C. The supernatant is discarded, and the plates are washed five times with tap water and air dried. Sulforhodamine B (SRB) solution (100 μl) at 0.4% (w/v) in 1% acetic acid is added to each well, and plates are incubated for 10 minutes at room temperature. After staining, unbound dye is removed by washing five times with 1% acetic acid and the plates are air dried. Bound stain is subsequently solubilized with 10 mM trizma base, and the absorbance is read on an automated plate reader at a wavelength of 515 nm. For suspension cells, the methodology is the same except that the assay is terminated by fixing settled cells at the bottom of the wells by gently adding 50 μl of 80% TCA (final concentration, 16% TCA). Using the seven absorbance measurements [time zero, (Tz), control growth, (C), and test growth in the presence of drug at the five concentration levels (Ti)], the percentage growth is calculated at each of the drug concentrations levels. Percentage growth inhibition is calculated as: [(Ti−Tz)/(C−Tz)]×100 for concentrations for which Ti>/=Tz [(Ti−Tz)/Tz]×100 for concentrations for which Ti<Tz\n(§4) Three dose response parameters are calculated for each experimental agent. […] The drug concentration resulting in total growth inhibition (TGI) is calculated from Ti=Tz. […] Values are calculated for each of these three parameters if the level of activity is reached; however, if the effect is not reached or is exceeded, the value for that parameter is expressed as greater or less than the maximum or minimum concentration tested.\n(§5) The methods described were used to test compounds 70 and 71 on a panel of sixty cell lines under a screening service provided by the Developmental Therapeutics Program at the National Institutes of Health. Shown in FIG. 1C are 1, RPMI-8226 leukemia cells; 2; NCI-H322M non-small cell lung cancer cells; 3, HT29 colon cancer cells; 4, U251 CNS cancer cells; 5, SK-MEL-28 melanoma cancer cells; 6, SK-OV-3 ovarian cancer cells; 7, RXF 393 renal cancer cells; 8, PC-3 prostate cancer cells; 9, MDA-MB-231 breast cancer cells."}, "HOP-92": {"test_system": "HOP-92", "experiment": "NCI DTP cell line screen (SRB), Non-Small Cell Lung Cancer", "type": "cell-based"}, "HCT-15": {"test_system": "HCT-15", "experiment": "NCI DTP cell line screen (SRB), Colon Cancer", "type": "cell-based"}, "MALME-3M": {"test_system": "MALME-3M", "experiment": "NCI DTP cell line screen (SRB), Melanoma", "type": "cell-based"}, "HS 578T": {"test_system": "HS 578T", "experiment": "NCI DTP cell line screen (SRB), Breast Cancer", "type": "cell-based", "procedure": "as §1, §2, §3, §4, §5"}, "MDA-MB-231/ATCC": {"test_system": "MDA-MB-231/ATCC", "experiment": "NCI DTP cell line screen (SRB), Breast Cancer", "type": "cell-based", "procedure": "as §1, §2, §3, §4, §5"}, "NCI/ADR-RES": {"test_system": "NCI/ADR-RES", "experiment": "NCI DTP cell line screen (SRB), Breast Cancer", "type": "cell-based", "procedure": "as §1, §2, §3, §4, §5"}, "T-47D": {"test_system": "T-47D", "experiment": "NCI DTP cell line screen (SRB), Breast Cancer", "type": "cell-based", "procedure": "as §1, §2, §3, §4, §5"}}}
{"compound": "NCC(=O)Nc1ccc(-n2nc(C(F)(F)F)cc2-c2ccc3c(ccc4ccccc43)c2)cc1", "note": "[Compound 70, 2-Amino-N-{4-[5-(2-phenanthrenyl)-3-(trifluoromethyl)-1H-pyrazol-1-yl]-phenyl}-acetamide]", "values": [{"measurement": "direct inhibitory effect on immunoprecipitated Akt activity", "setting": "immunoprecipitated Akt", "value": "no appreciable direct inhibition"}, {"measurement": "Percent Growth", "setting": "RPMI-8226; Log10 Concentration −4.0", "value": "−31", "unit": "%"}, {"measurement": "Percent Growth", "setting": "RPMI-8226; Log10 Concentration −5.0", "value": "−51", "unit": "%"}, {"measurement": "Percent Growth", "setting": "RPMI-8226; Log10 Concentration −6.0", "value": 42, "unit": "%"}, {"measurement": "Percent Growth", "setting": "RPMI-8226; Log10 Concentration −7.0", "value": 72, "unit": "%"}, {"measurement": "Percent Growth", "setting": "RPMI-8226; Log10 Concentration −8.0", "value": 85, "unit": "%"}, {"measurement": "TGI", "setting": "RPMI-8226; in M (unit assumed)", "value": "2.84E−06"}, {"measurement": "TGI", "setting": "HOP-92", "value": "3.07E−06"}, {"measurement": "Percent Growth", "setting": "HOP-92; Log10 Concentration −4.0", "value": "−75", "unit": "%"}, {"measurement": "Percent Growth", "setting": "HOP-92; Log10 Concentration −5.0", "value": "−91", "unit": "%"}, {"measurement": "Percent Growth", "setting": "HOP-92; Log10 Concentration −6.0", "value": 87, "unit": "%"}, {"measurement": "Percent Growth", "setting": "HOP-92; Log10 Concentration −7.0", "value": 89, "unit": "%"}, {"measurement": "Percent Growth", "setting": "HOP-92; Log10 Concentration −8.0", "value": 96, "unit": "%"}, {"measurement": "TGI", "setting": "HCT-15", "value": "3.19E−06"}, {"measurement": "Percent Growth", "setting": "HCT-15; Log10 Concentration −5.0", "value": "−47", "unit": "%"}, {"measurement": "Percent Growth", "setting": "HCT-15; Log10 Concentration −6.0", "value": 47, "unit": "%"}, {"measurement": "Percent Growth", "setting": "HCT-15; Log10 Concentration −7.0", "value": 54, "unit": "%"}, {"measurement": "Percent Growth", "setting": "HCT-15; Log10 Concentration −8.0", "value": 81, "unit": "%"}, {"measurement": "TGI", "setting": "MALME-3M", "value": "3.67E−06"}, {"measurement": "Percent Growth", "setting": "MALME-3M; Log10 Concentration −4.0", "value": "−56", "unit": "%"}, {"measurement": "Percent Growth", "setting": "MALME-3M; Log10 Concentration −5.0", "value": "−67", "unit": "%"}, {"measurement": "Percent Growth", "setting": "MALME-3M; Log10 Concentration −6.0", "value": 87, "unit": "%"}, {"measurement": "Percent Growth", "setting": "MALME-3M; Log10 Concentration −7.0", "value": 93, "unit": "%"}, {"measurement": "Percent Growth", "setting": "MALME-3M; Log10 Concentration −8.0", "value": 92, "unit": "%"}, {"measurement": "TGI", "setting": "HS 578T; HS 578T", "value": "5.25E−06"}, {"measurement": "Percent Growth", "setting": "HS 578T; HS 578T, Log10 Concentration −4.0", "value": "−38", "unit": "%"}, {"measurement": "Percent Growth", "setting": "HS 578T; HS 578T, Log10 Concentration −5.0", "value": "−34", "unit": "%"}, {"measurement": "Percent Growth", "setting": "HS 578T; HS 578T, Log10 Concentration −6.0", "value": 88, "unit": "%"}, {"measurement": "Percent Growth", "setting": "HS 578T; HS 578T, Log10 Concentration −7.0", "value": 99, "unit": "%"}, {"measurement": "Percent Growth", "setting": "HS 578T; HS 578T, Log10 Concentration −8.0", "value": 105, "unit": "%"}, {"measurement": "CC50", "setting": "HS 578T; Homo sapiens, Hs-578T, read-out: LC50", "value": "> 100", "unit": "µM"}, {"measurement": "TGI", "setting": "MDA-MB-231/ATCC", "value": "2.77E−06"}, {"measurement": "Percent Growth", "setting": "MDA-MB-231/ATCC; Log10 Concentration −4.0", "value": "−52", "unit": "%"}, {"measurement": "Percent Growth", "setting": "MDA-MB-231/ATCC; Log10 Concentration −5.0", "value": "−73", "unit": "%"}, {"measurement": "Percent Growth", "setting": "MDA-MB-231/ATCC; Log10 Concentration −6.0", "value": 58, "unit": "%"}, {"measurement": "Percent Growth", "setting": "MDA-MB-231/ATCC; Log10 Concentration −7.0", "value": 71, "unit": "%"}, {"measurement": "Percent Growth", "setting": "MDA-MB-231/ATCC; Log10 Concentration −8.0", "value": 100, "unit": "%"}, {"measurement": "TGI", "setting": "NCI/ADR-RES", "value": "2.85E−06"}, {"measurement": "Percent Growth", "setting": "NCI/ADR-RES; Log10 Concentration −4.0", "value": "−62", "unit": "%"}, {"measurement": "Percent Growth", "setting": "NCI/ADR-RES; Log10 Concentration −5.0", "value": "−59", "unit": "%"}, {"measurement": "Percent Growth", "setting": "NCI/ADR-RES; Log10 Concentration −6.0", "value": 49, "unit": "%"}, {"measurement": "Percent Growth", "setting": "NCI/ADR-RES; Log10 Concentration −7.0", "value": 98, "unit": "%"}, {"measurement": "Percent Growth", "setting": "NCI/ADR-RES; Log10 Concentration −8.0", "value": 98, "unit": "%"}, {"measurement": "TGI", "setting": "T-47D", "value": "4.21E−06"}, {"measurement": "Percent Growth", "setting": "T-47D; Log10 Concentration −4.0", "value": "−44", "unit": "%"}, {"measurement": "Percent Growth", "setting": "T-47D; Log10 Concentration −5.0", "value": "−52", "unit": "%"}, {"measurement": "Percent Growth", "setting": "T-47D; Log10 Concentration −6.0", "value": 86, "unit": "%"}, {"measurement": "Percent Growth", "setting": "T-47D; Log10 Concentration −7.0", "value": 109, "unit": "%"}, {"measurement": "Percent Growth", "setting": "T-47D; Log10 Concentration −8.0", "value": 84, "unit": "%"}]}
